Converted amounts (≈) assume the structure as drawn.
Assays:
Format in all cases: functional
Helicobacter pylori [1] = assay: Antibacterial activity against Helicobacter pylori strain 1 assessed as diameter of growth inhibition zone at 8 ug/disk after 3-5 days by filter paper disk diffusion method; conditions: read-out: DIZ
Helicobacter pylori [2] = assay: Antibacterial activity against Helicobacter pylori strain 1 assessed as diameter of growth inhibition zone at 16 ug/disk after 3-5 days by filter paper disk diffusion method; conditions: read-out: DIZ
Escherichia coli = assay: microbe, parasite or virus in culture; conditions: ATCC 8739, 24 h
Description: Antibacterial activity against Escherichia coli ATCC 8739 assessed as growth inhibition after 24 hr by microdilution method

Helicobacter pylori [3] = assay: Antibacterial activity against Helicobacter pylori strain 2 assessed as diameter of growth inhibition zone at 64 ug/disk after 3-5 days by filter paper disk diffusion method; conditions: read-out: DIZ
Helicobacter pylori [4] = assay: Antibacterial activity against Helicobacter pylori strain 1 assessed as diameter of growth inhibition zone at 64 ug/disk after 3-5 days by filter paper disk diffusion method; conditions: read-out: DIZ
Helicobacter pylori [5] = assay: Antibacterial activity against Helicobacter pylori strain 2 assessed as diameter of growth inhibition zone at 8 ug/disk after 3-5 days by filter paper disk diffusion method; conditions: read-out: DIZ
Helicobacter pylori [6] = assay: Antibacterial activity against Helicobacter pylori strain 3 assessed as diameter of growth inhibition zone at 8 ug/disk after 3-5 days by filter paper disk diffusion method; conditions: read-out: DIZ
Staphylococcus aureus = assay: microbe, parasite or virus in culture; conditions: ATCC 6538p, 24 h
Description: Antibacterial activity against Staphylococcus aureus ATCC 6538p assessed as growth inhibition after 24 hr by microdilution method

Helicobacter pylori [7] = assay: Antibacterial activity against Helicobacter pylori strain 3 assessed as diameter of growth inhibition zone at 64 ug/disk after 3-5 days by filter paper disk diffusion method; conditions: read-out: DIZ
[8] = tested on: Staphylococcus epidermidis; assay: microbe, parasite or virus in culture; conditions: ATCC 12228, 24 h
Description: Antibacterial activity against Staphylococcus epidermidis ATCC 12228 assessed as growth inhibition after 24 hr by microdilution method

Helicobacter pylori [9] = assay: Antibacterial activity against Helicobacter pylori strain 2 assessed as diameter of growth inhibition zone at 16 ug/disk after 3-5 days by filter paper disk diffusion method; conditions: read-out: DIZ
Helicobacter pylori [10] = assay: Antibacterial activity against Helicobacter pylori strain 1 assessed as diameter of growth inhibition zone at 32 ug/disk after 3-5 days by filter paper disk diffusion method; conditions: read-out: DIZ
Helicobacter pylori [11] = assay: Antibacterial activity against Helicobacter pylori strain 3 assessed as diameter of growth inhibition zone at 16 ug/disk after 3-5 days by filter paper disk diffusion method; conditions: read-out: DIZ
Pseudomonas aeruginosa = assay: microbe, parasite or virus in culture; conditions: ATCC 9027, 24 h
Description: Antibacterial activity against Pseudomonas aeruginosa ATCC 9027 assessed as growth inhibition after 24 hr by microdilution method

Helicobacter pylori [12] = assay: Antibacterial activity against Helicobacter pylori strain 2 assessed as diameter of growth inhibition zone at 32 ug/disk after 3-5 days by filter paper disk diffusion method; conditions: read-out: DIZ
Helicobacter pylori [13] = assay: Antibacterial activity against Helicobacter pylori strain 3 assessed as diameter of growth inhibition zone at 32 ug/disk after 3-5 days by filter paper disk diffusion method; conditions: read-out: DIZ
Klebsiella pneumoniae = assay: microbe, parasite or virus in culture; conditions: ATCC 10031, 24 h
Description: Antibacterial activity against Klebsiella pneumoniae ATCC 10031 assessed as growth inhibition after 24 hr by microdilution method

Bacillus subtilis = assay: microbe, parasite or virus in culture; conditions: ATCC 6633, 24 h
Description: Antibacterial activity against Bacillus subtilis ATCC 6633 assessed as growth inhibition after 24 hr by microdilution method

MIC (Escherichia coli) [µg/mL] | MIC (Staphylococcus aureus) [µg/mL] | MIC [8] [µg/mL] | MIC (Pseudomonas aeruginosa) [µg/mL] | MIC (Klebsiella pneumoniae) [µg/mL] | MIC (Bacillus subtilis) [µg/mL] | SMILES | zone of inhibition at 8 µg/disc (Helicobacter pylori [1]) [mm] | zone of inhibition at 16 µg/disc (Helicobacter pylori [2]) [mm] | zone of inhibition at 64 µg/disc (Helicobacter pylori [3]) [mm] | zone of inhibition at 64 µg/disc (Helicobacter pylori [4]) [mm] | zone of inhibition at 8 µg/disc (Helicobacter pylori [5]) [mm] | zone of inhibition at 8 µg/disc (Helicobacter pylori [6]) [mm] | zone of inhibition at 64 µg/disc (Helicobacter pylori [7]) [mm] | zone of inhibition at 16 µg/disc (Helicobacter pylori [9]) [mm] | zone of inhibition at 32 µg/disc (Helicobacter pylori [10]) [mm] | zone of inhibition at 16 µg/disc (Helicobacter pylori [11]) [mm] | zone of inhibition at 32 µg/disc (Helicobacter pylori [12]) [mm] | zone of inhibition at 32 µg/disc (Helicobacter pylori [13]) [mm]
100 (≈ 225 µM) | > 100 | > 100 | > 100 | > 100 | > 100 | COc1ccc(-c2csc(/N=C3\NC(=O)/C(=C/c4ccc([N+](=O)[O-])s4)S3)n2)cc1 | 22 | 25 | 39 | 30 | 30 | 22 | 35 | 32 | 27 | 25 | 35 | 30
> 100 | 0.39 (≈ 1 µM) | 0.19 (≈ 0.489 µM) | > 100 | > 100 | 0.78 (≈ 2.01 µM) | O=C1N/C(=N\c2nc3ccccc3s2)S/C1=C\c1ccc([N+](=O)[O-])s1 | – | – | – | – | – | – | – | – | – | – | – | –
> 100 | 50 (≈ 125 µM) | 25 (≈ 62.7 µM) | > 100 | > 100 | 50 (≈ 125 µM) | O=C1N/C(=N\c2nc(-c3ccccc3)cs2)S/C1=C\c1ccc([N+](=O)[O-])o1 | 10 | 13 | 23 | 20 | 10 | 13 | 20 | 12 | 15 | 15 | 18 | 18
> 100 | 25 (≈ 58.3 µM) | 12.5 (≈ 29.2 µM) | 100 (≈ 233 µM) | > 100 | 12.5 (≈ 29.2 µM) | COc1ccc(-c2csc(/N=C3\NC(=O)/C(=C/c4ccc([N+](=O)[O-])o4)S3)n2)cc1 | ≤ 6 | 10 | 20 | 14 | 15 | 12 | 26 | 17 | 12 | 16 | 19 | 19
> 100 | > 100 | > 100 | > 100 | > 100 | > 100 | O=C1N/C(=N\c2nc(-c3ccccc3)cs2)S/C1=C\c1ccc([N+](=O)[O-])s1 | – | – | – | – | – | – | – | – | – | – | – | –
1.56 (≈ 4.84 µM) | 0.97 (≈ 3.01 µM) | 0.006 (≈ 0.0186 µM) | 0.39 (≈ 1.21 µM) | 1.56 (≈ 4.84 µM) | 0.19 (≈ 0.589 µM) | O=C1N/C(=N\c2nccs2)S/C1=C\c1ccc([N+](=O)[O-])o1 | > 50 | > 50 | > 50 | > 50 | > 50 | > 50 | > 50 | > 50 | > 50 | > 50 | > 50 | > 50
> 100 | 1.56 (≈ 4.61 µM) | 0.39 (≈ 1.15 µM) | > 100 | > 100 | 0.78 (≈ 2.3 µM) | O=C1N/C(=N\c2nccs2)S/C1=C\c1ccc([N+](=O)[O-])s1 | 36 | 40 | 34 | 45 | 25 | 33 | 45 | 28 | 42 | 35 | 30 | 40
12.5 (≈ 37.3 µM) | 0.78 (≈ 2.33 µM) | 0.19 (≈ 0.567 µM) | > 100 | 0.39 (≈ 1.16 µM) | 0.19 (≈ 0.567 µM) | Cn1c(/C=C2\S/C(=N/c3nccs3)NC2=O)ccc1[N+](=O)[O-] | > 50 | > 50 | > 50 | > 50 | > 50 | > 50 | > 50 | > 50 | > 50 | > 50 | > 50 | > 50

Further lines, the molecule ahead of its results:

SMILES | MIC (Escherichia coli) [µg/mL] | MIC (Staphylococcus aureus) [µg/mL] | MIC [8] [µg/mL] | MIC (Pseudomonas aeruginosa) [µg/mL] | MIC (Klebsiella pneumoniae) [µg/mL] | MIC (Bacillus subtilis) [µg/mL] | zone of inhibition at 8 µg/disc (Helicobacter pylori [1]) [mm] | zone of inhibition at 16 µg/disc (Helicobacter pylori [2]) [mm] | zone of inhibition at 64 µg/disc (Helicobacter pylori [3]) [mm] | zone of inhibition at 64 µg/disc (Helicobacter pylori [4]) [mm] | zone of inhibition at 8 µg/disc (Helicobacter pylori [5]) [mm] | zone of inhibition at 8 µg/disc (Helicobacter pylori [6]) [mm] | zone of inhibition at 64 µg/disc (Helicobacter pylori [7]) [mm] | zone of inhibition at 16 µg/disc (Helicobacter pylori [9]) [mm] | zone of inhibition at 32 µg/disc (Helicobacter pylori [10]) [mm] | zone of inhibition at 16 µg/disc (Helicobacter pylori [11]) [mm] | zone of inhibition at 32 µg/disc (Helicobacter pylori [12]) [mm] | zone of inhibition at 32 µg/disc (Helicobacter pylori [13]) [mm]
Cn1c(/C=C2\S/C(=N/c3nc(-c4ccccc4)cs3)NC2=O)ccc1[N+](=O)[O-] | > 100 | > 100 | 50 (≈ 122 µM) | > 100 | > 100 | 50 (≈ 122 µM) | 6 | 6 | 6 | 6 | 6 | 6 | 6 | 6 | 6 | 6 | 6 | 6
COc1ccc(-c2csc(/N=C3\NC(=O)/C(=C/C4C(=O)Nc5ccccc54)S3)n2)cc1 (stereo unspecified) | 100 (≈ 223 µM) | > 100 | 100 (≈ 223 µM) | > 100 | > 100 | > 100 | 6 | 6 | 6 | 6 | 6 | 6 | 6 | 6 | 6 | 6 | 6 | 6
O=C1N/C(=N\c2nc3ccccc3s2)S/C1=C\C1C(=O)Nc2ccccc21 (stereo unspecified) | > 100 | > 100 | > 100 | > 100 | > 100 | > 100 | 6 | 6 | 18 | 13 | 11 | 6 | 10 | 13 | 10 | 6 | 16 | 6
Cn1c(/C=C2\S/C(=N/c3nc4ccccc4s3)NC2=O)ccc1[N+](=O)[O-] | > 100 | 25 (≈ 64.9 µM) | 25 (≈ 64.9 µM) | > 100 | 25 (≈ 64.9 µM) | 12.5 (≈ 32.4 µM) | 23 | 26 | 35 | 32 | 27 | 22 | 30 | 29 | 29 | 24 | 33 | 26
COc1ccc(-c2csc(/N=C3\NC(=O)/C(=C/c4ccc([N+](=O)[O-])n4C)S3)n2)cc1 | > 100 | > 100 | 25 (≈ 56.6 µM) | > 100 | 100 (≈ 227 µM) | 50 (≈ 113 µM) | 6 | 6 | 6 | 6 | 6 | 6 | 6 | 6 | 6 | 6 | 6 | 6
O=C1N/C(=N\c2nc3ccccc3s2)S/C1=C\c1ccc([N+](=O)[O-])o1 | 3.12 (≈ 8.39 µM) | 0.97 (≈ 2.6 µM) | 0.39 (≈ 1.05 µM) | > 100 | 6.25 (≈ 16.8 µM) | 0.39 (≈ 1.05 µM) | 20 | 24 | 30 | 33 | 22 | 25 | 34 | 24 | 28 | 28 | 26 | 30
Cc1ncc([N+](=O)[O-])n1CCO [METRONIDAZOLE] | – | – | – | – | – | – | – | 14 | – | – | – | – | – | 14 | – | 14 | – | –
O=C(O)c1cn(C2CC2)c2cc(N3CCNCC3)c(F)cc2c1=O [CIPROFLOXACIN] | – | 0.19 (≈ 0.573 µM) | 0.097 (≈ 0.293 µM) | 0.39 (≈ 1.18 µM) | 0.006 (≈ 0.0181 µM) | 0.19 (≈ 0.573 µM) | – | – | – | – | – | – | – | – | – | – | – | –

From ChEMBL document CHEMBL3045421, “5-Nitro-heteroarylidene analogs of 2-thiazolylimino-4-thiazolidinones as a novel series of antibacterial agents” (2013)
